Test results reported in publication PMC12856293 (The Journal of Biological Chemistry, 2025).

Legend:
TrzSMsmeg = target: T1, TrzSMsmeg (Mycolicibacterium smegmatis, UniProt A0QUG4); format: biochemical
T1 construct: gene MSMEG_2198

TyzAMtb = target: T2, TyzAMtb (Mycobacterium tuberculosis, UniProt P95232)
T2 construct: gene Rv2336
T2 sequence (P95232 1-322): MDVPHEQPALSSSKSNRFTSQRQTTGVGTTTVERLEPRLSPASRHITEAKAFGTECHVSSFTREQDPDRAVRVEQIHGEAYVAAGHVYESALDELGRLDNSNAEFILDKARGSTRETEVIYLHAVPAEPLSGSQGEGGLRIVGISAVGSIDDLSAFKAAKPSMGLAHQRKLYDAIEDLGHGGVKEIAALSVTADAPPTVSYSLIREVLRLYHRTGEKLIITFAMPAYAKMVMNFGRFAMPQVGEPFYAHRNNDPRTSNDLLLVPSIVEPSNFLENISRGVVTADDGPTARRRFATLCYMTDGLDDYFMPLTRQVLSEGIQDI

T1 sequence (A0QUG4 1-723): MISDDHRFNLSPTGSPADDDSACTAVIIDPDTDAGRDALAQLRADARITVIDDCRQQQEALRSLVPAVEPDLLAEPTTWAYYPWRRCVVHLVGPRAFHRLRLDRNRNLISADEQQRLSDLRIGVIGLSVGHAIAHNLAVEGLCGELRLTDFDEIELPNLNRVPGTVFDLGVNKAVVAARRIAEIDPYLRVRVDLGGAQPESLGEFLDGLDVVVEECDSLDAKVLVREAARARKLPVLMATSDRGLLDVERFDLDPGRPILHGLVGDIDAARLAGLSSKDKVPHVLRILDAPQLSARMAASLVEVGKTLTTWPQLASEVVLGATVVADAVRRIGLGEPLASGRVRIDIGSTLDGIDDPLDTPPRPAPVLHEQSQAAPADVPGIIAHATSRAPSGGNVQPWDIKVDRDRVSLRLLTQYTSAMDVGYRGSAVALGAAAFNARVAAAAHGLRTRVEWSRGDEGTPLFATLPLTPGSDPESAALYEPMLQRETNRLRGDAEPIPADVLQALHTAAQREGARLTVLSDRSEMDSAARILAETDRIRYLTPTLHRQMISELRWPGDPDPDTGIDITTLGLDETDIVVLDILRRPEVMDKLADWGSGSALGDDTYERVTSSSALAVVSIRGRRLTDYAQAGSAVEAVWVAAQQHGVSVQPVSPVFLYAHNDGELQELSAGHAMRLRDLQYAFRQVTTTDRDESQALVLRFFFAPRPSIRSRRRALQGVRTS

Row | SMILES | LC-QTOF product detection, coupled with TrzAMtb (TrzSMsmeg) | LC-QTOF endpoint product detection (TyzAMtb)
1 | Nc1ncnc2c1ncn2[C@@H]1O[C@H](COP(=O)(O)OP(=O)(O)OP(=O)(O)O)[C@@H](O)[C@H]1O [ATP] | only the N-acyl tryptophan was observed when ATP was omitted from the reaction | 
2 | CCCC(=O)N[C@@H](Cc1c[nH]c2ccccc12)C(=O)O [C4:0-tryptophan] | we detected significant amounts of C4:0-tryptophan, produced by TrzAMtb, and C4:0-tryptazolone | 
3 | CCCCCCCCCCCC(=O)SCCNC(=O)CCNC(=O)[C@H](O)C(C)(C)COP(=O)(O)OP(=O)(O)OC[C@H]1O[C@@H](n2cnc3c(N)ncnc32)[C@H](O)[C@@H]1OP(=O)(O)O [C12:0-CoA] |  | we detected substantial amounts of C12:0-Tyr, C12:0-tyrazolone
